# Results taken from patent US11365192B2, “Pyridine compound substituted with azole” (TAISHO PHARMACEUTICAL CO., LTD., priority 2017, dated 2022).
# How the values were obtained:
# human CYP4A11 = human CYP4A11 (Homo sapiens (Human), UniProt Q02928); assay: Inhibition test against 20-HETE producing enzyme CYP4A11 (luciferine derivative, luminescence); assay type: biochemical; details: E. coli membrane fraction expressing human CYP4A11, 60 μM luciferine derivative, room temperature 60 minutes
# Method in brief: (§1)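 IC50 derived from luminescence after 60 min at room temperature with membrane fractions of E. coli expressing each human CYP (100 μg/mL protein). For CYP4A11, 60 μM luciferin derivative in 100 mM Tris-HCl pH 7.5 with NADPH-regenerating system; for CYP4F2, 2.5 μM substrate, 1 mM NADPH, 50 mM KPO4 pH 7.4.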
# human CYP4F2 = human CYP4F2 (Homo sapiens (Human), UniProt P78329); assay: Inhibition test against 20-HETE producing enzyme CYP4F2 (luciferine derivative, luminescence); assay type: biochemical; details: E. coli membrane fraction expressing human CYP4F2, 2.5 μM luciferine derivative, room temperature 60 minutes
# Method in brief: as §1
# human CYP4F2, sequence (P78329 5-520): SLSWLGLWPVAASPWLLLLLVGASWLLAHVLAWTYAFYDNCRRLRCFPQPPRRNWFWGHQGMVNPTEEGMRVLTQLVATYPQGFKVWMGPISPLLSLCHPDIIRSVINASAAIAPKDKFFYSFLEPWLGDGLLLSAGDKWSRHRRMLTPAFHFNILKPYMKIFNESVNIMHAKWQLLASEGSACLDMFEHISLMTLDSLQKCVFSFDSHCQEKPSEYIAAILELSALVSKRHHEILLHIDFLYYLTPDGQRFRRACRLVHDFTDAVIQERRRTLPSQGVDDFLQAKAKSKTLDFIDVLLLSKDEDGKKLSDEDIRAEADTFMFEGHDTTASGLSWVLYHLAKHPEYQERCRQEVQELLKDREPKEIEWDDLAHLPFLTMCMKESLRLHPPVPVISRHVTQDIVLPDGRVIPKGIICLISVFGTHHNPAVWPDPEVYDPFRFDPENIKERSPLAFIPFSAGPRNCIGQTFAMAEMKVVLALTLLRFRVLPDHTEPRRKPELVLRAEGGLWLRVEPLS
# human CYP4A11, sequence (Q02928 5-519): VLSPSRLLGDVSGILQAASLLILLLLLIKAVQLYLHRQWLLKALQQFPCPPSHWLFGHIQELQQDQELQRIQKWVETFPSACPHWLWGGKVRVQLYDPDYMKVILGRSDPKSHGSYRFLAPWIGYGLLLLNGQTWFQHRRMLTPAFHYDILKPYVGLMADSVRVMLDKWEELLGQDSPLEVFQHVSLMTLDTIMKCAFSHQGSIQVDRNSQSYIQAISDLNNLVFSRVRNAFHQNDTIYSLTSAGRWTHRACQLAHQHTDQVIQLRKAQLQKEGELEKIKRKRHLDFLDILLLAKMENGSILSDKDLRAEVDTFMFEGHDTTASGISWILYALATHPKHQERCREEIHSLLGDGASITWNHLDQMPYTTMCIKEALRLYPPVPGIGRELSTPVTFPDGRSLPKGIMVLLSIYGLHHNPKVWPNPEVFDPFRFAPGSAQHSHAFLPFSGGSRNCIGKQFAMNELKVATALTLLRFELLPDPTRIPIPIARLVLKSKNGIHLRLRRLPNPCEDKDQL
SMILES,IC50 (human CYP4A11),IC50 (human CYP4F2)
O=C(O)c1cc(COc2ccc(-c3ccn[nH]3)nc2)ccc1F [Example 22-15],92 nM,14000 nM
O=C(O)c1cc(COc2ccc(-c3ccn[nH]3)nc2)ccc1Cl [Example 22-16],780 nM,33000 nM
"COc1cc(COc2ccc(-c3ccn[nH]3)nc2)ccc1C(=O)O [Example 22-17, 2-Methoxy-4-[[6-(1H-pyrazol-5-yl)-3-pyridinyl]oxymethyl]benzoic Acid]",62 nM,19000 nM
O=C(O)c1ccc(COc2ccc(-c3ccn[nH]3)nc2)cc1F [Example 22-18],35 nM,18000 nM
"O=C(O)Cc1cccc(OCCOc2ccc(-c3ccn[nH]3)nc2)c1 [Example 22-19, 2-[3-[2-[[6-(1H-Pyrazol-5-yl)-3-pyridinyl]oxy]ethoxy]phenyl] acetic Acid]",49 nM,1500 nM
"O=C(O)CCCCCCOc1ccc(-c2ccn[nH]2)nc1 [Example 22-20, 7-[[6-(1H-Pyrazol-5-yl)-3-pyridinyl]oxy]heptanoic Acid]",76 nM,9600 nM
"CNS(=O)(=O)c1cccc(COc2ccc(-c3ccn[nH]3)nc2)c1 [Example 23-1, N-Methyl-3-[[6-(1-H-pyrazol-5-yl)-3-pyridinyl]oxymethyl]benzenesulfonamide]",36 nM,220 nM
"CNS(=O)(=O)c1cccc(CN(C)S(=O)(=O)c2cccc(COc3ccc(-c4ccn[nH]4)nc3)c2)c1 [Example 23-2, N-Methyl-3-[[methyl-[3-[[6-(1-H-pyrazol-5-yl)-3-pyridinyl]oxymethyl]phenyl]sulfonylamino]methyl]benzenesulfonamide]",13 nM,3 nM
O=S(=O)(NCCc1c[nH]c2ccccc12)c1ccc(COc2ccc(-c3ccn[nH]3)nc2)cc1 [Example 23-3],1700 nM,49 nM
OCc1ccc(COc2ccc(-c3ccn[nH]3)nc2)cc1 [Example 23-4],2000 nM,51 nM
OCc1cccc(COc2ccc(-c3ccn[nH]3)nc2)c1 [Example 23-5],480 nM,130 nM
O=S(=O)(Nc1ccc(F)cc1)c1ccc(COc2ccc(-c3ccn[nH]3)nc2)cc1 [Example 23-6],270 nM,6.4 nM
"CC(C(=O)O)c1cccc(COc2ccc(-c3ccn[nH]3)nc2)c1 (stereo not drawn) [Example 24-1, Sodium 2-[3-[[6-(1H-pyrazol-5-yl)-3-pyridinyl]oxymethyl]phenyl]propanoate]",16 nM,13000 nM
"CC(C)(C(=O)O)c1cccc(COc2ccc(-c3ccn[nH]3)nc2)c1 [Example 24-2, Sodium 2-methyl-2-[3-[[6-(1H-pyrazol-5-yl)-3-pyridinyl]oxymethyl]phenyl]propanoate]",16 nM,3500 nM
CC(C)(C(=O)O)c1cccc(OCCOc2ccc(-c3ccn[nH]3)nc2)c1 [Example 24-3],60 nM,3200 nM
"O=C(O)Cn1cc(CCCOc2ccc(-c3ccn[nH]3)nc2)nn1 [Example 35-1, 2-[4-[3-[[6-(1H-Pyrazol-5-yl)-3-pyridinyl]oxy]propyl]-1-triazolyl]acetic Acid]",3000 nM,20000 nM

# Now from value to molecule:
IC50 (human CYP4A11),IC50 (human CYP4F2),SMILES
33 nM,16000 nM,"Cc1cc(COc2ccc(-c3ccn[nH]3)nc2)ccc1C(=O)O [Example 25-1, 2-Methyl-4-[[6-(1H-pyrazol-5-yl)-3-pyridinyl]oxymethyl]benzoic Acid]"
44 nM,400 nM,"CC(C)(O)c1cccc(COc2ccc(-c3ccn[nH]3)nc2)c1 [Example 27-1, 2-[3-[[6-(1-H-Pyrazol-5-yl)-3-pyridinyl]oxymethyl]phenyl]-2-propanol]"
15 nM,300 nM,CC(O)(c1cccc(COc2ccc(-c3ccn[nH]3)nc2)c1)C(F)(F)F (stereo not drawn) [Example 27-2]
120 nM,350 nM,OC1(c2cccc(COc3ccc(-c4ccn[nH]4)nc3)c2)CCC1 [Example 27-3]
110 nM,120 nM,OC1(c2cccc(COc3ccc(-c4ccn[nH]4)nc3)c2)CCCC1 [Example 27-4]
79 nM,900 nM,CC(C)(O)c1cc(COc2ccc(-c3ccn[nH]3)nc2)ccc1F [Example 27-5]
61 nM,470 nM,"O=C(O)[C@H]1C[C@](O)(c2cccc(COc3ccc(-c4ccn[nH]4)nc3)c2)C1 [Example 28-1, 3-Hydroxy-3-[3-[[6-(1-H-pyrazol-5-yl)-3-pyridinyl]oxymethyl]phenyl]-1-cyclobutanecarboxylic Acid]"
100 nM,1000 nM,O=C(O)[C@H]1C[C@](O)(c2cc(COc3ccc(-c4ccn[nH]4)nc3)ccc2F)C1 [Example 28-2]
650 nM,4000 nM,"O=C(O)c1cccc(CCCOc2ccc(-c3ccn[nH]3)nc2)n1 [Example 29-1, 6-[3-[[6-(1H-Pyrazol-5-yl)-3-pyridinyl]oxy]propyl]-2-pyridinecarboxylic Acid]"
1300 nM,2700 nM,"O=C(O)c1ccnc(CCCOc2ccc(-c3ccn[nH]3)nc2)c1 [Example 29-2, 2-[3-[[6-(1H-Pyrazol-5-yl)-3-pyridinyl]oxy]propyl]-4-pyridinecarboxylic Acid]"
380 nM,84 nM,O=C(O)c1ncc(CCCCOc2ccc(-c3ccn[nH]3)nc2)cn1 [Example 29-3]
42 nM,240 nM,O=C(O)c1ccc(CCCCOc2ccc(-c3ccn[nH]3)nc2)cn1 [Example 29-4]
29 nM,690 nM,O=C(O)c1cccc(CCCCOc2ccc(-c3ccn[nH]3)nc2)n1 [Example 29-5]
17 nM,1400 nM,"O=C(O)CCCc1cccc(COc2ccc(-c3ccn[nH]3)nc2)c1 [Example 30-1, 4-[3-[[6-(1H-Pyrazol-5-yl)-3-pyridinyl]oxymethyl]phenyl]butanoic Acid]"
160 nM,190 nM,O=C(O)CCCc1ccc(COc2ccc(-c3ccn[nH]3)nc2)cc1 [Example 30-2]
150 nM,370 nM,"O=C(O)CCc1cccc(CCCOc2ccc(-c3ccn[nH]3)nc2)c1 [Example 30-3, 3-[3-[3-[[6-(1H-Pyrazol-5-yl)-3-pyridinyl]oxy]propyl]phenyl]propanoic Acid]"

IC50 (human CYP4A11),IC50 (human CYP4F2),SMILES
140 nM,350 nM,O=C(O)CCCc1cccc(CCCOc2ccc(-c3ccn[nH]3)nc2)c1 [Example 30-4]
420 nM,74 nM,O=C(O)CCCc1ccc(CCCOc2ccc(-c3ccn[nH]3)nc2)cc1 [Example 30-5]
9.3 nM,110 nM,"O=C(O)c1cccc(-c2cccc(COc3ccc(-c4ccn[nH]4)nc3)c2)c1 [Example 31-1, 3-[3-[[6-(1H-Pyrazol-5-yl)-3-pyridinyl]oxymethyl]phenyl]benzoic Acid]"
9.8 nM,100 nM,O=C(O)c1ccc(-c2cccc(COc3ccc(-c4ccn[nH]4)nc3)c2)cc1 [Example 31-2]
25 nM,180 nM,"O=C(O)c1ccc(-c2cccc(COc3ccc(-c4ccn[nH]4)nc3)c2)cn1 [Example 31-3, 5-[3-[[6-(1H-Pyrazol-5-yl)-3-pyridinyl]oxymethyl]phenyl]-2-pyridinecarboxylic Acid]"
12 nM,390 nM,O=C(O)c1cncc(-c2cccc(COc3ccc(-c4ccn[nH]4)nc3)c2)c1 [Example 31-4]
33 nM,430 nM,"O=C(O)Cc1cccc(CCCOc2ccc(-c3ccn[nH]3)nc2)c1 [Example 32-1, 2-[3-[3-[[6-(1H-Pyrazol-5-yl)-3-pyridinyl]oxy]propyl]phenyl]acetic Acid]"
22 nM,1300 nM,CC(C)(C(=O)O)c1cccc(CCCOc2ccc(-c3ccn[nH]3)nc2)c1 [Example 32-2]
180 nM,7000 nM,"CC(=O)N1CCC(C(=O)O)(c2cccc(COc3ccc(-c4ccn[nH]4)nc3)c2)CC1 [Example 33-1, 1-Acetyl-4-[3-[[6-(1H-pyrazol-5-yl)-3-pyridinyl]oxymethyl]phenyl]-4-piperidinecarboxylic Acid]"
130 nM,14000 nM,"O=C(O)C1(c2cccc(COc3ccc(-c4ccn[nH]4)nc3)c2)CCOCC1 [Example 33-2, 4-[3-[[6-(1H-Pyrazol-5-yl)-3-pyridinyl]oxymethyl]phenyl]-4-oxanecarboxylic Acid]"
42 nM,4100 nM,"O=C(O)C1CCN(c2cccc(COc3ccc(-c4ccn[nH]4)nc3)c2)CC1 [Example 34-1, 1-[3-[[6-(1H-Pyrazol-5-yl)-3-pyridinyl]oxymethyl]phenyl]-4-piperidinecarboxylic Acid]"
50 nM,11000 nM,O=C(O)C1CCCN(c2cccc(COc3ccc(-c4ccn[nH]4)nc3)c2)C1 (stereo not drawn) [Example 34-2]
26 nM,390 nM,"O=C(O)c1cnn(-c2cccc(COc3ccc(-c4ccn[nH]4)nc3)c2)c1 [Example 34-3, 1-[3-[[6-(1H-Pyrazol-5-yl)-3-pyridinyl]oxymethyl]phenyl]-4-pyrazolecarboxylic Acid]"
360 nM,5700 nM,O=C(O)Cn1cc(CCCCOc2ccc(-c3ccn[nH]3)nc2)nn1 [Example 35-2]
290 nM,7400 nM,CC(C)(C(=O)O)n1cc(CCCCOc2ccc(-c3ccn[nH]3)nc2)nn1 [Example 35-3]
82 nM,93 nM,"CC(C)(O)CS(=O)(=O)c1cccc(COc2ccc(-c3ccn[nH]3)nc2)c1 [Example 36-1, 2-Methyl-1-[3-[[6-(1-H-pyrazol-5-yl)-3-pyridinyl]oxymethyl]phenyl] sulfonyl-2-propanol]"
